Test results reported in US20030114388A1, “Auxiliary agents for ophthalmic operation” (priority 2000, published 2003).

Tested on: intraoperative bleeding in a patient suffering from diabetic retinopathy with increased intrinsic coagulation tendency
Test: Systemic drip infusion of argatroban during ophthalmic operation in a patient with diabetic retinopathy (Example 1)
Format: in vivo
Conditions: one patient
Procedure: The present invention will be more specifically explained by referring to an example. However, as for as within the gist of the present invention, the present invention is not limited to the following example. As argatroban in the following example, a drug commercially available as the tradename “Slonnon” was used.
The patient was a youth suffering from diabetic retinopathy with increased intrinsic coagulation tendency. […] Argatroban 10 mg as one ample was added to a drip infusion (specify ingredients, and a tradename and name of a manufacturing company if commercially available) and systemically administered to the patient from the beginning of the operation. The operation was completed for 2 hours.
The above patient was a youth suffering from diabetic retinopathy with increased intrinsic coagulation tendency, and if treated under an ordinary operation, intraoperative bleedings would have expected to be easy clotting and caused operative difficulties.

[1] = argatroban 10 mg drip infusion during operation

Question: With `CC1CNc2c(cccc2S(=O)(=O)NC(CCCNC(=N)N)C(=O)N2CCC(C)CC2C(=O)O)C1` (mixture of isomers) [argatroban, (2R,4R)-4-methyl-1-[N^2((RS)-3-methyl-1,2,3,4-tetrahydro-8-quinolinesulfonyl)-L-arginyl]-2-piperidinecarboxylic acid monohydrate] as the molecule, how does the abnormal bleeding tendency [1] read?
Answer: Its abnormal bleeding tendency is “No abnormal bleeding tendency was not observed”.

Question: What about the “ease of treatment of intraoperative bleeding” value [1] of the same molecule?
Answer: Its value is “treatment of intraoperative bleeding became easier”.

Question: And the “removal of intraoperative bleedings” value (argatroban 10 mg drip infusion, passive suction using a back flash needle)?
Answer: Its value is “successfully removed by passive suction using a back flash needle”.

Question: What about the “preretinal clotting mass formation from intraoperative bleedings” value (argatroban 10 mg in drip infusion, systemic, from beginning of operation, 2 hour operation, treatment of fibrous vascular proliferating membrane) of the same molecule?
Answer: Its value is “all of the bleedings did not give preretinal clotting mass”.

Question: What about the intraoperative iatrogenic tear (during treatment of fibrous vascular proliferating membrane, argatroban 10 mg drip infusion) of the same molecule?
Answer: Its intraoperative iatrogenic tear is “no intraoperative iatrogenic tear was caused”.
